pIC50: −log10 of the molar value.
These compounds were tested against T1, SMYD3 (Homo sapiens, UniProt Q9H7B4) (assay: SMYD3 biochemical assay (MTase-Glo, MAP3K2 peptide substrate)). Details: Table 3; MTase assay, MAP3K2 peptide substrate; read-out: IC50.
T1 sequence (Q9H7B4 1-428): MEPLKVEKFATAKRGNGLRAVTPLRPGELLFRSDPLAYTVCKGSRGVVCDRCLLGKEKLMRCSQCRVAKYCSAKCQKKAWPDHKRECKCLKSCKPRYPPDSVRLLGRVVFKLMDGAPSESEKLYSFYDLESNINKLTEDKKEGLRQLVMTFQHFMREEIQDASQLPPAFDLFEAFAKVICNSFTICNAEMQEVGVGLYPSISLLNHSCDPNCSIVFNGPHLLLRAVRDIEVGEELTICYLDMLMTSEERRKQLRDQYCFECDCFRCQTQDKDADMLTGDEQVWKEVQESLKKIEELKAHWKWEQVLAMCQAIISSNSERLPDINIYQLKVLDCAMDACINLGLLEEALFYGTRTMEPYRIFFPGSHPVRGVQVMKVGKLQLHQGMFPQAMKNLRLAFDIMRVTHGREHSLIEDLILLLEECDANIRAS
Outline: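 Methylation of MAP3K2 peptide (10 µM final) with SAM (1.0 µM final) by SMYD3, 30 min at room temperature. SAH formed was enzymatically converted to ATP and detected as luminescence with MTase-Glo reagents; IC50 by non-linear regression.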

Row | SMILES | pIC50
1 | CCCOC(=O)N1CCN(C(=O)c2ccc3c(Cl)c4c(nc3c2)CC(c2ncccc2F)CC4)C[C@H]1C (stereo partly drawn) [A115, Propyl (2R)-4-(9-chloro-6-(3-fluoropyridin-2-yl)-5,6,7,8-tetrahydroacridine-3-carbonyl)-2-methylpiperazine-1-carboxylate] | 6.57
2 | CCCOC(=O)N1CCN(C(=O)c2ccc3c(Cl)c4c(nc3c2)CCCC4)C(C#N)C1 (stereo not shown) [A116, Propyl 4-(9-chloro-5,6,7,8-tetrahydroacridine-3-carbonyl)-3-cyanopiperazine-1-carboxylate] | 6.68
3 | CCCOC(=O)N1CCN(C(=O)c2ccc3c(Cl)c4c(nc3c2)CCCC4)CC1C#N (stereo not shown) [A117, Propyl 4-(9-chloro-5,6,7,8-tetrahydroacridine-3-carbonyl)-2-cyanopiperazine-1-carboxylate] | 6.92
4 | CCCOC(=O)N1CCN(C(=O)c2ccc3c(Cl)c4c(nc3c2)C(C)CCC4)CC1 (stereo not shown) [A118, Propyl 4-(9-chloro-5-methyl-5,6,7,8-tetrahydroacridine-3-carbonyl)piperazine-1-carboxylate] | 6.74
5 | CCCOC(=O)N1CCN(C(=O)c2ccc3c(Cl)c4c(nc3c2)C(c2ccccc2)CCC4)CC1 (stereo not shown) [A119, Propyl 4-(9-chloro-5-phenyl-5,6,7,8-tetrahydroacridine-3-carbonyl)piperazine-1-carboxylate] | 5.72
6 | CCCOC(=O)N1CCN(C(=O)c2ccc3c(Cl)c4c(nc3c2)CC(CCN2CCCC2)CC4)CC1 (stereo not shown) [A121, Propyl 4-(9-chloro-6-(2-(pyrrolidin-1-yl)ethyl)-5,6,7,8-tetrahydroacridine-3-carbonyl)piperazine-1-carboxylate] | 6.66
7 | CCCOC(=O)N1CCN(C(=O)c2ccc3c(Cl)c4c(nc3c2)CC(c2ccnc(C)c2)CC4)C[C@H]1C (stereo partly drawn) [A122, Propyl (2R)-4-(9-chloro-6-(2-methylpyridin-4-yl)-5,6,7,8-tetrahydroacridine-3-carbonyl)-2-methylpiperazine-1-carboxylate] | 6.92
8 | CCCOC(=O)N1CCN(C(=O)c2ccc3c(Cl)c4c(nc3c2)CC(c2ccnc(C)c2)CC4)C[C@@H]1C (stereo partly drawn) [A123, Propyl (2S)-4-(9-chloro-6-(2-methylpyridin-4-yl)-5,6,7,8-tetrahydroacridine-3-carbonyl)-2-methylpiperazine-1-carboxylate] | 6.85
9 | CCCOC(=O)N1CCN(C(=O)c2ccc3c(Cl)c4c(nc3c2)CC(c2ncccc2F)CC4)C[C@@H]1C (stereo partly drawn) [A124, Propyl (2S)-4-(9-chloro-6-(3-fluoropyridin-2-yl)-5,6,7,8-tetrahydroacridine-3-carbonyl)-2-methylpiperazine-1-carboxylate] | 6.47
10 | CCCOC(=O)N1CCN(C(=O)c2ccc3c(Cl)c4c(nc3c2)CCCC4)C(CO)C1 (stereo not shown) [A125, Propyl 4-(9-chloro-5,6,7,8-tetrahydroacridine-3-carbonyl)-3-(hydroxymethyl)piperazine-1-carboxylate] | 6.60
11 | CCCOC(=O)N1CCN(C(=O)c2ccc3c(Cl)c4c(nc3c2)CC(c2nccs2)CC4)CC1 (stereo not shown) [A128, Propyl 4-(9-chloro-6-(thiazol-2-yl)-5,6,7,8-tetrahydroacridine-3-carbonyl)piperazine-1-carboxylate] | 7.00
12 | CCCOC(=O)N1CCN(C(=O)c2ccc3c(Cl)c4c(nc3c2)CC(c2ccc(C)cn2)CC4)CC1 (stereo not shown) [A130, Propyl 4-(9-chloro-6-(5-methylpyridin-2-yl)-5,6,7,8-tetrahydroacridine-3-carbonyl)piperazine-1-carboxylate] | 6.89
13 | CCCOC(=O)N1CCN(C(=O)c2ccc3c(Cl)c4c(nc3c2)CC(c2cc(C)ccn2)CC4)CC1 (stereo not shown) [A132, Propyl 4-(9-chloro-6-(4-methylpyridin-2-yl)-5,6,7,8-tetrahydroacridine-3-carbonyl)piperazine-1-carboxylate] | 6.68
14 | CCCOC(=O)N1CCN(C(=O)c2ccc3c(Cl)c4c(nc3c2)CC(c2ccncn2)CC4)CC1 (stereo not shown) [A134, Propyl 4-(9-chloro-6-(pyrimidin-4-yl)-5,6,7,8-tetrahydroacridine-3-carbonyl)piperazine-1-carboxylate] | 6.85
15 | CCCOC(=O)N1CCN(C(=O)c2ccc3c(Cl)c4c(nc3c2)CC(c2ccnc(C#N)c2)CC4)CC1 (stereo not shown) [A138, Propyl 4-(9-chloro-6-(2-cyanopyridin-4-yl)-5,6,7,8-tetrahydroacridine-3-carbonyl)piperazine-1-carboxylate] | 6.17
16 | CCCOC(=O)N1CCN(C(=O)c2ccc3c(Cl)c4c(nc3c2)CC(c2ccnc(C(N)=O)c2)CC4)CC1 (stereo not shown) [A139, Propyl 4-(6-(2-carbamoylpyridin-4-yl)-9-chloro-5,6,7,8-tetrahydroacridine-3-carbonyl)piperazine-1-carboxylate] | 6.46
17 | CCCOC(=O)N1CCN(C(=O)c2ccc3c(Cl)c4c(nc3c2)CC(c2ccnc(C#N)c2)CC4)C[C@H]1C (stereo partly drawn) [A140, Propyl (2R)-4-(9-chloro-6-(2-cyanopyridin-4-yl)-5,6,7,8-tetrahydroacridine-3-carbonyl)-2-methylpiperazine-1-carboxylate] | 6.38
18 | CCCOC(=O)N1CCN(C(=O)c2ccc3c(Cl)c4c(nc3c2)CC(c2ccnc(C(N)=O)c2)CC4)C[C@H]1C (stereo partly drawn) [A141, Propyl (2R)-4-(6-(2-carbamoylpyridin-4-yl)-9-chloro-5,6,7,8-tetrahydroacridine-3-carbonyl)-2-methylpiperazine-1-carboxylate] | 6.64

More lines, now with the values ahead:

Row | pIC50 | SMILES
19 | 6.47 | CCCOC(=O)N1CCN(C(=O)c2ccc3c(Cl)c4c(nc3c2)CC(c2ncccc2F)CC4)[C@H](C)C1 (stereo partly drawn) [A113, Propyl (3R)-4-(9-chloro-6-(3-fluoropyridin-2-yl)-5,6,7,8-tetrahydroacridine-3-carbonyl)-3-methylpiperazine-1-carboxylate]
20 | 6.96 | CCCOC(=O)N1CCN(C(=O)c2ccc3c(Cl)c4c(nc3c2)CC(c2ccnc(C)c2)CC4)[C@H](C)C1 (stereo partly drawn) [A114, Propyl (3R)-4-(9-chloro-6-(2-methylpyridin-4-yl)-5,6,7,8-tetrahydroacridine-3-carbonyl)-3-methylpiperazine-. 1-carboxylate]
21 | 6.92 | CCCOC(=O)N1CCN(C(=O)c2ccc3c(Cl)c4c(nc3c2)CC(CCN(C)C)CC4)[C@H](C)C1 (stereo partly drawn) [A120, Propyl (3R)-4-(9-chloro-6-(2-(dimethylamino)ethyl)-5,6,7,8-tetrahydroacridine-3-carbonyl)-3-methylpiperazine-1-carboxylate]
22 | 6.96 | CCCOC(=O)N1CCN(C(=O)c2ccc3c(Cl)c4c(nc3c2)CC(CCN(C)C)CC4)[C@@H](C)C1 (stereo partly drawn) [A126, Propyl (3S)-4-(9-chloro-6-(2-(dimethylamino)ethyl)-5,6,7,8-tetrahydroacridine-3-carbonyl)-3-methylpiperazine-1-carboxylate]
23 | 6.96 | CCCOC(=O)N1CCN(C(=O)c2ccc3c(Cl)c4c(nc3c2)C(C)CCC4)C[C@H]1C (stereo partly drawn) [A127, Propyl (2R)-4-(9-chloro-5-methyl-5,6,7,8-tetrahydroacridine-3-carbonyl)-2-methylpiperazine-1-carboxylate]
24 | 7.03 | CCCOC(=O)N1CCN(C(=O)c2ccc3c(Cl)c4c(nc3c2)CC(c2nccs2)CC4)C[C@H]1C (stereo partly drawn) [A129, Propyl (2R)-4-(9-chloro-6-(thiazol-2-yl)-5,6,7,8-tetrahydroacridine-3-carbonyl)-2-methylpiperazine-1-carboxylate]
25 | 6.96 | CCCOC(=O)N1CCN(C(=O)c2ccc3c(Cl)c4c(nc3c2)CC(c2ccc(C)cn2)CC4)C[C@H]1C (stereo partly drawn) [A131, Propyl (2R)-4-(9-chloro-6-(5-methylpyridin-2-yl)-5,6,7,8-tetrahydroacridine-3-carbonyl)-2-methylpiperazine-1-carboxylate]
26 | 6.92 | CCCOC(=O)N1CCN(C(=O)c2ccc3c(Cl)c4c(nc3c2)CC(c2cc(C)ccn2)CC4)C[C@H]1C (stereo partly drawn) [A133, Propyl (2R)-4-(9-chloro-6-(4-methylpyridin-2-yl)-5,6,7,8-tetrahydroacridine-3-carbonyl)-2-methylpiperazine-1-carboxylate]
27 | 7.12 | CCCOC(=O)N1CCN(C(=O)c2ccc3c(Cl)c4c(nc3c2)CC(CCN(C)C)CC4)C[C@H]1C (stereo partly drawn) [A135, Propyl (2R)-4-(9-chloro-6-(2-(dimethylamino)ethyl)-5,6,7,8-tetrahydroacridine-3-carbonyl)-2-methylpiperazine-1-carboxylate]
28 | 7.16 | CCCOC(=O)N1CCN(C(=O)c2ccc3c(Cl)c4c(nc3c2)CC(CCN(C)C)CC4)C[C@@H]1C (stereo partly drawn) [A136, Propyl (2S)-4-(9-chloro-6-(2-(dimethylamino)ethyl)-5,6,7,8-tetrahydroacridine-3-carbonyl)-2-methylpiperazine-1-carboxylate]
29 | 6.54 | C#CCC1CCc2c(nc3cc(C(=O)N4CCN(C(=O)OCCC)C[C@@H]4C)ccc3c2Cl)C1 (stereo partly drawn) [A137, Propyl (3S)-4-(9-chloro-6-(prop-2-yn-1-yl)-5,6,7,8-tetrahydroacridine-3-carbonyl)-3-methylpiperazine-1-carboxylate]
30 | 6.38 | C#CCC1CCc2c(nc3cc(C(=O)N4CCN(C(=O)OCCC)[C@H](C)C4)ccc3c2Cl)C1 (stereo partly drawn) [A142, Propyl (2R)-4-(9-chloro-6-(prop-2-yn-1-yl)-5,6,7,8-tetrahydroacridine-3-carbonyl)-2-methylpiperazine-1-carboxylate]
31 | 6.34 | CCCOC(=O)N1CCN(C(=O)c2ccc3c(Cl)c4c(nc3c2)CC(c2ccnc(C#N)c2)CC4)[C@@H](C)C1 (stereo partly drawn) [A143, Propyl (3S)-4-(9-chloro-6-(2-cyanopyridin-4-yl)-5,6,7,8-tetrahydroacridine-3-carbonyl)-3-methylpiperazine-1-carboxylate]
